# In patent US8461348B2, “Heterocyclic derivative and use thereof” (Takeda Pharmaceutical Company Limited, priority 2008, dated 2013):
# How the values were obtained:
# Purified sGC = biological target: T1, Purified sGC (Homo sapiens, UniProt Q02153); experiment: Measurement of sGC activation in vitro (cGMP production by purified sGC); type: biochemical; conditions: 20 min; test compound diluted to 30 μM, 10 μL/well plus equal volumes of sGC and GTP; 20 min at room temperature; cGMP without compound (1% DMSO) = 100%; read-out: cGMP amount (%) in experiment system
# T1 sequence (Q02153 1-619): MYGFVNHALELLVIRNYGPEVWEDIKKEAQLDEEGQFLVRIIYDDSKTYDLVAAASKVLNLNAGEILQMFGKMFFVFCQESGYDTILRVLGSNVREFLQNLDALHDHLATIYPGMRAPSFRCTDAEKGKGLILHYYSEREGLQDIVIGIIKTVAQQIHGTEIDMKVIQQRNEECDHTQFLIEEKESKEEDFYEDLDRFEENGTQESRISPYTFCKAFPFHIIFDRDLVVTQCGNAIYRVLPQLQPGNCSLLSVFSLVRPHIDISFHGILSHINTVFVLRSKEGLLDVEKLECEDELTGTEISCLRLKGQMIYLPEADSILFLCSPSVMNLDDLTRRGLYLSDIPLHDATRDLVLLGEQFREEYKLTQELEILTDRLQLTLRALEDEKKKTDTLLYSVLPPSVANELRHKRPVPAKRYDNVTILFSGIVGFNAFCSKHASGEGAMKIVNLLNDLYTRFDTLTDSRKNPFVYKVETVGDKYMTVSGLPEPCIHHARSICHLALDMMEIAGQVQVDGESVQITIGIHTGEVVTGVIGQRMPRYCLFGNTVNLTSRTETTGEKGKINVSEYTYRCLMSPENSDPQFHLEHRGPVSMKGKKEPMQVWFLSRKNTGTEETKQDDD
# T1 sequence (Q02108 1-690 partner): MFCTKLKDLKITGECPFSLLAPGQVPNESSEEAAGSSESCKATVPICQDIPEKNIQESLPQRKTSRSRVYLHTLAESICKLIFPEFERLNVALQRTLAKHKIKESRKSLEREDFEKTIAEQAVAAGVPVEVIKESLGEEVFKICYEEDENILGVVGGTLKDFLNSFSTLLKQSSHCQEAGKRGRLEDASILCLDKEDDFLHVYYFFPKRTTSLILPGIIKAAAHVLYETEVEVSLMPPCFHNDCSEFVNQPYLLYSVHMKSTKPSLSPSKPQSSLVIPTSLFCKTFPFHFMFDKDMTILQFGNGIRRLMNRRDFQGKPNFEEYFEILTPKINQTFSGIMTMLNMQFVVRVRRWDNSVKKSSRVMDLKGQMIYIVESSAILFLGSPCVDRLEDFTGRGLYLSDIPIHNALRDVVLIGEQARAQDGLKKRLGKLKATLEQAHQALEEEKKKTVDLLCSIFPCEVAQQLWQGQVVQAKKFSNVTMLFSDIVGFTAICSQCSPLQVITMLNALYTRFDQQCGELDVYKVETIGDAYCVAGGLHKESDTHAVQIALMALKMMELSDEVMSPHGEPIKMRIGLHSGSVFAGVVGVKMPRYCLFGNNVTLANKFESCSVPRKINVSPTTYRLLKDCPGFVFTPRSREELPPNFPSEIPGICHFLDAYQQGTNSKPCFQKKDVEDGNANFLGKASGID
# Protocol: To evaluate sGC activation of each compound, the following in vitro tests were performed.
# A test compound was diluted with a reaction buffer (50 mM HEPES, 5 mM MgCl2, 2 mM DTT, 0.5 mM IBMX (isobutylmethylxanthine), 0.01% BSA) to 30 μM (3% DMSO), and dispensed to a 384 well plate (manufactured by REMP) at 10 μL/well. Purified sGC was diluted with the reaction buffer to 240 ng/mL and added to the plate at 10 μL/well. Then, 120 μM GTP prepared with the reaction buffer was added to the reaction plate at 10 μL/well to initiate an enzyme reaction. After stirring at room temperature for 20 min to allow reaction, 125 mM Na2CO3 was added at 15 μL/well to quench the reaction. Thereafter, 125 mM Zn Acetate (zinc acetate) was added at 15 μL/well to allow precipitation of unreacted GTP. Then, the amount of the resulting cGMP contained in the supernatant was quantified using a CatchPoint cGMP assay kit (molecular devices). The method followed the protocol attached to the assay kit. For detection, Super Signal ELISA Femto (Thermo) was used, and the amount of luminescence was measured with ARVO (Perkinelmer). The sGC activity with addition of the compound was calculated using the amount of cGMP produced without addition of the compound (in the presence of 1% DMSO) as 100%.
# male SHR = experiment: Measurement of hypotensive action in vivo in SHR; set-up: species or system rat; conditions: single oral administration, 30 mg/kg, 5 hr after administration
# Protocol: Animal used was male SHR (32- to 40-week-old, SHR/Izm, Japan SLC, Inc.). Two days before drug administration, a cannula (SP10+SP45, Natsume Seisakusho Co., Ltd.) filled with heparin physiological saline (200 U/mL, Ajinomoto Pharma Co., Ltd.) was inserted from the femoral artery under anesthesia with pentobarbital Na (50 mg/kg, i.p., Kyoritsu Seiyaku Corporation) and dwelled. The other end of the cannula was subcutaneously passed and exposed on the back of the neck where it was fixed. After a recovery period, the artery dwelling cannula was connected to a pressure transducer (DTX Plus DT-XXAD, Japan Becton Dickinson) and output on a pen recorder (linear recorder WR3320-4µL, Graphtec Corporation) via a polygraph (AP-641G, Nihon Kohden Co.), and the blood pressure waveform was recorded. The heart rate was calculated from the blood pressure waveform. After stable blood pressure was obtained, a solvent or a drug was orally administered once, and average blood pressure and average heart rate were measured over time. The blood pressure was measured under fasting, and the rats were reared under free ingestion of feed and water except the blood pressure measurement day. The drug was suspended in 0.5% methylcellulose aqueous solution. The administration dose was 2 mL/kg.
smiles,measurement,setting,value
"O=C(O)c1ccc(Cc2nc(-c3cccc(C(F)(F)F)c3)cs2)cc1 [Example 178, 4-({4-[3-(trifluoromethyl)phenyl]-1,3-thiazol-2-yl}methyl)benzoic acid]",activity at 10 µM,Purified sGC,> 1000%
same,hypotension after 5 hr from the administration,male SHR,15.8 mmHg
